{"source": "paper PMC2729173", "about": "(Cancer research, 2009)", "key": {"[1]": {"settings": "rat; cited from earlier work"}, "BCRP": {"molecular_target": "T1, BCRP (Homo sapiens, UniProt Q9UNQ0)", "T1 sequence (Q9UNQ0 1-655)": "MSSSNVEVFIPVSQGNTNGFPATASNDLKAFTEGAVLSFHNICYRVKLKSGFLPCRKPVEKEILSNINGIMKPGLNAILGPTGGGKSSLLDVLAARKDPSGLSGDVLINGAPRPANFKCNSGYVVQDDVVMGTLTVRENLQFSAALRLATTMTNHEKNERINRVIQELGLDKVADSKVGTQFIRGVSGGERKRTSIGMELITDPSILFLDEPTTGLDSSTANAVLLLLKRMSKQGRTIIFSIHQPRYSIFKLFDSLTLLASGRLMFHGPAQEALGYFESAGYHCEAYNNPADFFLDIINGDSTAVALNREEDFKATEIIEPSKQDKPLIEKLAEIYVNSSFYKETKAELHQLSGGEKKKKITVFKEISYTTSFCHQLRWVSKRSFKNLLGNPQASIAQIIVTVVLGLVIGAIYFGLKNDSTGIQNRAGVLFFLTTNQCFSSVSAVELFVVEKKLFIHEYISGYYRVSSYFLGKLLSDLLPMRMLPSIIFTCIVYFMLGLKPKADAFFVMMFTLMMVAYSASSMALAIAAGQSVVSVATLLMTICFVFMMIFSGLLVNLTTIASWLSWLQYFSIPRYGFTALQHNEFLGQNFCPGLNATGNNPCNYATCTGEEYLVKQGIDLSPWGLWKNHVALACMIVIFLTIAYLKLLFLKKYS", "type": "cell-based", "settings": "for intracellular topotecan lactone concentration: topotecan 500 ng/mL"}, "[2]": {"assay": "Intracerebral microdialysis of brain parenchymal ECF", "settings": "topotecan 4 mg/kg i.v.; for ECF CLin-to-CLout ratio of unbound topotecan lactone: three-compartment model; for Kp: mouse, brain ECF (striatum microdialysate) vs plasma, intravenous, 4 mg/kg, ECF-to-plasma AUC ratio of unbound topotecan lactone (AUCu,ECF/AUCu,plasma), mean ±SD; for topotecan lactone ECF concentrations: Mdr1a/b−/− mice"}, "[3]": {"assay": "Topotecan lactone plasma protein binding", "type": "in vitro ADME, mice", "settings": "mouse, unbound fraction of plasma topotecan lactone, mean ±SD"}, "[4]": {"assay": "Intracerebral microdialysis of ventricular CSF", "settings": "topotecan 4 mg/kg i.v., three-compartment model"}}, "note": "Structures can show the parent of a compound that is named as a salt. Where two headings read alike, the source gives them in different places.", "data": [{"smiles": "CCCNCCOc1ccc(NC(=O)c2c[nH]c3c2C(=O)CCC3)cc1F", "note": "[CP-615,003]", "values": [{"measurement": "accumulation in CSF relative to ECF", "setting": "[1]", "result": 7, "unit": "fold"}]}, {"smiles": "CCC(O)(C(=O)O)c1cc2n(c(=O)c1CO)Cc1cc3c(CN(C)C)c(O)ccc3nc1-2", "note": "(centres unmarked) [Topotecan carboxylate]", "values": [{"measurement": "topotecan carboxylate detection in cells", "setting": "BCRP; pH 6", "result": "not detected"}, {"measurement": "difference in intracellular topotecan carboxylate accumulation between Saos2-pcDNA and Saos2-BCRP cells", "setting": "BCRP; pH 8, data not shown", "result": "no difference"}]}, {"smiles": "CC[C@@]1(O)C(=O)OCc2c1cc1n(c2=O)Cc2cc3c(CN(C)C)c(O)ccc3nc2-1", "note": "[Topotecan, Topotecan hydrochloride]", "values": [{"measurement": "ECF CLin-to-CLout ratio of unbound topotecan lactone", "setting": "[2]; Bcrp1−/− mice", "result": "0.42 ± 0.06"}, {"measurement": "Kp", "setting": "[2]; Bcrp1−/−, Bcrp1−/− mice", "result": "0.42 ± 0.06"}, {"measurement": "ECF CLin-to-CLout ratio of unbound topotecan lactone", "setting": "[2]; FVB wild-type mice", "result": "0.36 ± 0.06"}, {"measurement": "Kp", "setting": "[2]; FVB, Mdr1a/b−/−Bcrp1−/− mice", "result": "0.89 ± 0.07"}, {"measurement": "topotecan lactone ECF concentrations", "setting": "[2]; listed as Topotecan lactone", "result": "below detectable limits"}, {"measurement": "topotecan lactone ECF concentrations", "setting": "[2]; listed as topotecan lactone", "result": "below the lower limit of detection"}, {"measurement": "ECF CLin-to-CLout ratio of unbound topotecan lactone", "setting": "[2]; Mdr1a/b−/−Bcrp1−/− mice", "result": "0.89 ± 0.07"}, {"measurement": "Kp", "setting": "[2]; Mdr1a/b−/−Bcrp1−/−, Mdr1a/b−/−Bcrp1−/− mice", "result": "0.88 ± 0.07"}, {"measurement": "intracellular topotecan lactone concentration", "setting": "BCRP; Saos2-BCRP cells, 1-min incubation, pH 6", "result": "0.043±0.005", "unit": "ng/μg protein"}, {"measurement": "intracellular topotecan lactone concentration", "setting": "BCRP; Saos2-BCRP cells, 30-min incubation, pH 6", "result": "0.026 ± 0.004", "unit": "ng/µg"}, {"measurement": "intracellular topotecan lactone concentration", "setting": "BCRP; Saos2-pcDNA control cells, 1-min incubation, pH 6", "result": "0.063±0.01", "unit": "ng/μg protein"}, {"measurement": "intracellular topotecan lactone concentration", "setting": "BCRP; Saos2-pcDNA control cells, 30-min incubation, pH 6", "result": "0.039 ± 0.003", "unit": "ng/µg"}, {"measurement": "fraction unbound", "setting": "[3]; FVB, wild-type mice", "result": 0.301}, {"measurement": "fraction unbound", "setting": "[3]; Bcrp1−/− mice", "result": 0.309}, {"measurement": "fraction unbound", "setting": "[3]; Mdr1a/b−/− mice", "result": 0.292}, {"measurement": "fraction unbound", "setting": "[3]; Mdr1a/b−/−Bcrp1−/− mice", "result": 0.275}, {"measurement": "vCSF CLin-to-CLout ratio of unbound topotecan lactone", "setting": "[4]; Bcrp1−/− mice", "result": "1.59 ± 0.16"}, {"measurement": "vCSF CLin-to-CLout ratio of unbound topotecan lactone", "setting": "[4]; FVB wild-type mice", "result": "3.01 ± 0.15"}, {"measurement": "vCSF CLin-to-CLout ratio of unbound topotecan lactone", "setting": "[4]; Mdr1a/b−/− mice", "result": "2.57 ± 0.17"}, {"measurement": "vCSF CLin-to-CLout ratio of unbound topotecan lactone", "setting": "[4]; Mdr1a/b−/−Bcrp1−/− mice", "result": "0.86 ± 0.04"}]}]}
